In patent US11530186B2, “Inhibitors for the β-catenin / T-cell factor protein-protein interaction” (H. LEE MOFFITT CANCER CENTER AND RESEARCH INSTITUTE, INC., priority 2018, dated 2022):
Where two headings read alike, the source gives them in different places.

Biological target: T1, β-catenin/Tcf protein-protein interaction (Homo sapiens, UniProt P35222)
T1 construct: Wild-type β-catenin (residues 138-781) were cloned into a pET-28b vector; 6×histidine (C); made in house; host or cells: E. coli BL21 DE3
T1 sequence (P35222 138-781): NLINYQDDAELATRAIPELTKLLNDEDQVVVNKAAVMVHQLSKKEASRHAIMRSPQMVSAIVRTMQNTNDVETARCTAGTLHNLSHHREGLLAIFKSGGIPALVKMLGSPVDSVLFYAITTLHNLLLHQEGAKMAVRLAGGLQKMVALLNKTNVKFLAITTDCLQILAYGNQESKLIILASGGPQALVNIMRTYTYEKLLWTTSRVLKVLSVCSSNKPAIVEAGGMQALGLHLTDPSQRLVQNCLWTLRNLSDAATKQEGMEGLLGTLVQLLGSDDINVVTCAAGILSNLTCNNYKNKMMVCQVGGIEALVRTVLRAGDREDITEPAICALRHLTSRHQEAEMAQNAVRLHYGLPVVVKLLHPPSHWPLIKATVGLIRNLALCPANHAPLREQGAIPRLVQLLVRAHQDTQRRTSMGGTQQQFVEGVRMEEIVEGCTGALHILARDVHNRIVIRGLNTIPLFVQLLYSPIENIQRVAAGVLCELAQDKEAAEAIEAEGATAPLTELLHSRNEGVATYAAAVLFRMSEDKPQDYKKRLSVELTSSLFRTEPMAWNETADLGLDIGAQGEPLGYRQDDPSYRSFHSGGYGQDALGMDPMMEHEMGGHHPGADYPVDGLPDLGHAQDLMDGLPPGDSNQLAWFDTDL
Test: FP competitive inhibition assay
Type: binding
Experimental: Protein Expression and Purification. Wild-type β-catenin (residues 138-781) were cloned into a pET-28b vector carrying a C-terminal 6×histidine (Novagen) and transformed into E. coli BL21 DE3 (Novagen). Cells were cultured in LB medium with 30 μg/mL kanamycin until the OD600 was approximately 0.8, and then protein expression was induced with 400 μM of IPTG at 20° C. overnight. Cells were lysed by sonication. The proteins were purified by Ni-NTA affinity chromatography (30210, Qiagen) and dialyzed against a buffer containing 20 mM of Tris (pH 8.8), 100 mM NaCl, 10% glycerol, and 3 mM DTT. The purity of β-catenin was set to >95% as determined by SDS-PAGE gel analysis. Native non-denaturing gel electrophoresis experiment and the thermal-shift assay on an iCycler iQ Real Time Detection System (Bio-Rad) were performed for each purified protein. In the thermal shift assay, protein unfolding was evaluated through measuring the fluorescence changes of fluorescent dye Sypro Orange with purified β-catenin proteins. A temperature increment of 1° C./min was applied to monitor protein stability and detect protein aggregation. CD spectra were measured on a J-815 spectropolarimeter (Jasco). All spectra were recorded using a 1 mm path-length quartz cell. The CD spectra were averaged over three scans, and the wavelength was scanned from 260 to 190 nm in step of 1 nm. All spectra were recorded at room temperature, and the baseline was corrected by subtracting the CD spectra of a blank control containing all of the substances except protein. Samples were prepared at a concentration around 1-5 μM in a buffer of 10 mM potassium phosphate and 100 mM potassium fluoride at pH 7.0 to ensure that the transmission of light through the sample was not restricted. All proteins were stable, and no aggregation was observed under storage or assay conditions. Proteins were aliquoted and stored at −80° C. C-terminally fluorescein-labeled human Tcf4 (residues 7-51) was synthesized and HPLC purified with purity >95%. The structures were validated by LC/MS (liquid chromatography/mass spectrometry).
FP Assays. The procedures for the FP competitive inhibition assays have been described previously (Zhang, M.; Huang, Z.; Yu, B.; Ji, H. New homogeneous high-throughput assays for inhibitors of β-catenin/Tcf protein-protein interactions Anal. Biochem. 2012, 424, 57-63; Zhang, M.; Catrow, J. L.; Ji, H. High-throughput selectivity assays for small-molecule inhibitors of β-catenin/T-cell factor protein-protein interactions. ACS Med. Chem. Lett. 2013, 4, 306-311). Briefly, all of the tested compounds were prepared as 10 mM DMSO stocks. In the primary screen, the concentrations of the compounds and DMSO were set to 50 μM and 1% (v/v). Only the compounds which FP signal decreases were greater than 50% in the single-point β-catenin/Tcf assay were evaluated by counter screen. […] In the FP competitive inhibition assay, 10 nM human β-catenin and 2.5 nM of C-terminally fluorescein-labeled human Tcf4 were incubated in an assay buffer of 137 mM NaCl, 2.7 mM KCl, 10 mM Na2HPO4, 2 mM KH2PO4, 100 μg/mL of bovine γ-globulin, and 0.01% Triton-X100 for 15 min at 4° C. Bovine γ-globulin and Triton-X100 were included in the assay buffer to decrease the likelihood of compound acting by aggregate formation. Different concentrations of the tested compounds in the assay buffer were added to each test plate to make a final volume of 100 μL. Each assay plate was covered black and gently mixed on an orbital shaker at 4° C. for 1.5 h to reach equilibrium before the polarization values were read. The IC50 value was determined by nonlinear least-square analysis of GraphPad Prism 5.0. The Ki values were derived (Nikolovska-Coleska, Z.; Wang, R.; Fang, X.; Pan, H.; Tomita, Y.; Li, P.; Roller, P. P.; Krajewski, K.; Saito, N. G.; Stuckey, J. A.; Wang, S. Development and optimization of a binding assay for the XIAP BIR3 domain using fluorescence polarization. Anal. Biochem. 2004, 332, 261-273). […]

[1] = Assay 1, mean ± SD (n = 3), read-out: Ki ± SD, Assay 1
[2] = Assay 2, mean ± SD (n = 3), read-out: Ki ± SD, Assay 2

Row | SMILES | Ki [1] | Ki [2]
1 | O=C(O)c1ccc2c(c1)c(CCc1ccc3ccccc3c1)c(CCc1nc3ccccc3s1)n2CCc1nn[nH]n1 [Compound 36, 1-(2-(2H-tetrazol-5-yl)ethyl)-2-(2-(benzo[d]thiazol-2-yl)ethyl)-3-(2-(naphthalen-2-yl)ethyl)-1H-indole-5-carboxylic acid] | 0.61 ± 0.065 µM | 
2 | COc1ccc2sc(CCc3c(CCc4ccc(Cl)cc4)c4cc(C(=O)NCCc5ccc(Cl)cc5)ccc4n3CCc3nn[nH]n3)nc2c1 [Compound 49, 1-(2-(2H-tetrazol-5-yl)ethyl)-N,3-bis(4-chlorophenethyl)-2-(2-(5-methoxybenzo[d]thiazol-2-yl)ethyl)-1H-indole-5-carboxamide] | 0.75 ± 0.23 µM | 3.2 ± 0.24 µM
3 | COc1ccc2sc(CCc3c(CCc4ccc(Cl)cc4)c4cc(C(=O)NCc5cccc(Cl)c5)ccc4n3CCc3nn[nH]n3)nc2c1 [Compound 53, 1-(2-(2H-tetrazol-5-yl)ethyl)-N-(3-chlorobenzyl)-3-(4-chlorophenethyl)-2-(2-(5-methoxybenzo[d]thiazol-2-yl)ethyl)-1H-indole-5-carboxamide] | 2.7 ± 0.34 µM | 6.1 ± 1.2 µM
4 | COc1ccc2nc(C#Cc3c(CCc4ccc(Cl)cc4)c4cc(C(=O)O)ccc4n3CCc3nn[nH]n3)sc2c1 [Compound 72, 1-(2-(2H-tetrazol-5-yl)ethyl)-3-(4-chlorophenethyl)-2-((6-methoxybenzo[d]thiazol-2-yl)ethynyl)-1H-indole-5-carboxylic acid] | 0.6 ± 0.039 µM | 
5 | COc1ccc2sc(CCc3c(CCc4ccc(Cl)cc4)c4cc(C(=O)NCc5ccccc5Br)ccc4n3CCc3nn[nH]n3)nc2c1 [Compound 52, 1-(2-(2H-tetrazol-5-yl)ethyl)-N-(2-bromobenzyl)-3-(4-chlorophenethyl)-2-(2-(5-methoxybenzo[d]thiazol-2-yl)ethyl)-1H-indole-5-carboxamide] | 1.5 ± 0.17 µM | 2.6 ± 0.59 µM
6 | Cc1ccc(CCc2c(-c3ccsc3)n(CCc3nn[nH]n3)c3ccc(C(N)=O)cc23)cc1 [Compound 88, 1-(2-(2H-tetrazol-5-yl)ethyl)-3-(4-methylphenethyl)-2-(thiophen-3-yl)-1H-indole-5-carboxamide] | 16 ± 0.71 µM | ~24 µM
7 | O=C(O)c1cccc(CCc2nn[nH]n2)c1 [Compound 1, 3-(2-(2H-tetrazol-5-yl)ethyl)benzoic acid] | 990 ± 36 µM | 
8 | CONC(=O)c1ccc2c(c1)c(CCc1ccc(C)cc1)c(-c1ccsc1)n2CCc1nn[nH]n1 [Compound 91, 1-(2-(2H-tetrazol-5-yl)ethyl)-N-methoxy-3-(4-methylphenethyl)-2-(thiophen-3-yl)-1H-indole-5-carboxamide] | 31 ± 5.8 µM | 
9 | COc1ccc2nc(C#Cc3c(CCc4ccc5c(c4)OCCO5)c4cc(C(=O)O)ccc4n3CCc3nn[nH]n3)sc2c1 [Compound 75, 1-(2-(2H-tetrazol-5-yl)ethyl)-3-(2-(2,3-dihydrobenzo[b][1,4]dioxin-6-yl)ethyl)-2-((6-methoxybenzo[d]thiazol-2-yl)ethynyl)-1H-indole-5-carboxylic acid] | 1.8 ± 0.11 µM | 0.68 ± 0.059 µM
10 | COc1ccc2sc(CCc3c(CCc4ccc(Cl)cc4)c4cc(C(=O)NCC5CCNCC5)ccc4n3CCc3nn[nH]n3)nc2c1 [Compound 67, 4-((1-(2-(2H-tetrazol-5-yl)ethyl)-3-(4-chlorophenethyl)-2-(2-(5-methoxybenzo[d]thiazol-2-yl)ethyl)-1H-indole-5-carboxamido)methyl)piperidin-1-ium] | 5.9 ± 0.37 µM | > 22 µM
11 | Cc1ccc(CCc2c(-c3csc4ccccc34)n(CCc3nn[nH]n3)c3ccc(C(=O)O)cc23)cc1 [Compound 79, 1-(2-(2H-tetrazol-5-yl)ethyl)-2-(benzo[b]thiophen-3-yl)-3-(4-methylphenethyl)-1H-indole-5-carboxylic acid] | 0.57 ± 0.052 µM | 0.7 ± 0.06 µM
12 | O=C(NCc1ccon1)c1ccc2c(c1)c(CCC1CCOCC1)c(-c1ccsc1)n2CCc1nn[nH]n1 [Compound 96, 1-(2-(2H-tetrazol-5-yl)ethyl)-N-(isoxazol-3-ylmethyl)-3-(2-(tetrahydro-2H-pyran-4-yl)ethyl)-2-(thiophen-3-yl)-1H-indole-5-carboxamide] | > 25 µM | > 25 µM

Now from value to compound:

Row | Ki [1] | Ki [2] | SMILES
13 | 20 ± 1.1 µM |  | Cc1ccc(CCc2c(-c3ccncc3)n(CCc3nn[nH]n3)c3ccc(C(=O)O)cc23)cc1 [Compound 83, 1-(2-(2H-tetrazol-5-yl)ethyl)-3-(4-methylphenethyl)-2-(pyridin-4-yl)-1H-indole-5-carboxylic acid]
14 | 6.6 ± 0.44 µM | 41 ± 1.5 µM | O=C(O)c1ccc2c(c1)c(CCc1ccc(Cl)c(Cl)c1)cn2CCc1nn[nH]n1 [Compound 12, 1-(2-(2H-tetrazol-5-yl)ethyl)-3-(3,4-dichlorophenethyl)-1H-indole-5-carboxylic acid]
15 | 31 ± 5.9 µM |  | O=C(O)c1ccc2c(c1)c(CCc1ccc(C(F)(F)F)cc1)cn2CCc1nn[nH]n1 [Compound 9, 1-(2-(2H-tetrazol-5-yl)ethyl)-3-(4-(trifluoromethyl)phenethyl)-1H-indole-5-carboxylic acid]
16 | 35 ± 1.2 µM |  | O=C(O)c1ccc2c(c1)c(CCc1ccc3c(c1)OCCO3)cn2CCc1nn[nH]n1 [Compound 22, 1-(2-(2H-tetrazol-5-yl)ethyl)-3-(2-(2,3-dihydrobenzo[b][1,4]dioxin-6-yl)ethyl)-1H-indole-5-carboxylic acid]
17 | 27 ± 4 µM |  | Cc1ccc(CCc2cn(CCc3nn[nH]n3)c3ccc(C(=O)O)cc23)cc1 [Compound 7, 1-(2-(2H-tetrazol-5-yl)ethyl)-3-(4-methylphenethyl)-1H-indole-5-carboxylic acid]
18 | 1.1 ± 0.12 µM | 1.6 ± 0.23 µM | O=C(O)c1ccc2c(c1)c(CCc1ccc(-c3ccccc3)cc1)cn2CCc1nn[nH]n1 [Compound 18, 1-(2-(2H-tetrazol-5-yl)ethyl)-3-(2-([1,1′-biphenyl]-4-yl)ethyl)-1H-indole-5-carboxylic acid]
19 | 11 ± 1.8 µM | 5.2 ± 1.7 µM | O=C(O)c1ccc2c(c1)c(CCc1ccc(Cl)cc1)c(CCc1nc3ccccc3[nH]1)n2CCc1nn[nH]n1 [Compound 29, 2-(2-(1H-benzo[d]imidazol-2-yl)ethyl)-1-(2-(2H-tetrazol-5-yl)ethyl)-3-(4-chlorophenethyl)-1H-indole-5-carboxylic acid]
20 | 26 ± 2.3 µM | 19 ± 2.5 µM | O=C(O)c1ccc2c(c1)c(CCc1ccc(Cl)cc1)cn2CCc1nn[nH]n1 [Compound 6, 1-(2-(2H-tetrazol-5-yl)ethyl)-3-(4-chlorophenethyl)-1H-indole-5-carboxylic acid]
